Reference: PMC8190895 (RSC Chemical Biology, 2021)
Where two headings read alike, the source gives them in different places.

Legend:
Assay in all cases: ITC
Format in all cases: binding
[1] = target: T1, Gal-8FL (full-length human galectin-8) (Homo sapiens, UniProt O00214); conditions: PBS (50 mM sodium phosphate, 150 mM NaCl) pH 7.4, 1 mM TCEP, 298 K
T1 sequence (O00214 1-317): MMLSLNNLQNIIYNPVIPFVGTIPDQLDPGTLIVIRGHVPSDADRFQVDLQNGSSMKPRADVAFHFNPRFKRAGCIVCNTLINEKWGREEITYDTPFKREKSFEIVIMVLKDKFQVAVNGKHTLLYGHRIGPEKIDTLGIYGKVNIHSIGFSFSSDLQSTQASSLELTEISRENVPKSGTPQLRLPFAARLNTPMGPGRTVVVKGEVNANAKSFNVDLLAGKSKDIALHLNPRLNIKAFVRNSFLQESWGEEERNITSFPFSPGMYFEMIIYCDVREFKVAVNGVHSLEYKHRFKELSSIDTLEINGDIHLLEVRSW

[2] = target: T2, Gal-8N (N-terminal CRD of human galectin-8) (Homo sapiens, UniProt O00214); conditions: read-out: Neu5Acα2-3Galb1-3GalNAc (3); PBS (50 mM sodium phosphate, 150 mM NaCl) pH 7.4, 1 mM TCEP, 298 K
T2 sequence (O00214 1-155): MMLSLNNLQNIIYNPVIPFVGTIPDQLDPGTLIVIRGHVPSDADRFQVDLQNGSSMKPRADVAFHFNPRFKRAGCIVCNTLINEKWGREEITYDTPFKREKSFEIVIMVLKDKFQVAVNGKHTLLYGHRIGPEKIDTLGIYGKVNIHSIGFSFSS

[3] = target: T3, Gal-8C (C-terminal CRD of human galectin-8) (Homo sapiens, UniProt O00214); conditions: PBS (50 mM sodium phosphate, 150 mM NaCl) pH 7.4, 1 mM TCEP, 298 K
T3 sequence (O00214 184-317): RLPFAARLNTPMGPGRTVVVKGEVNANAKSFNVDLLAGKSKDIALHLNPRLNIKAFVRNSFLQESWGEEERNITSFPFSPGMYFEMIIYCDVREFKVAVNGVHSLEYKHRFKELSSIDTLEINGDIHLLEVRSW

CC(=O)N[C@H]1[C@H]([C@H](O)[C@H](O)CO)O[C@@](O[C@H]2[C@@H](O)[C@@H](CO)O[C@@H](O[C@H]3[C@@H](O)[C@@H](CO)OC(O)[C@@H]3NC(C)=O)[C@@H]2O)(C(=O)O)C[C@@H]1O (stereo partly drawn) [compound 3, 3-sialyl-Galβ1–3GalNAc]
Kd ([1]; read-out: Neu5Acα2-3Galb1-3GalNAc (3), site: N-terminal CRD, not pre-loaded): 4.3 ± 0.4 µM | Kd [2]: 2.2 ± 0.1 µM

CC(=O)N[C@H]1[C@@H](O[C@H]2[C@@H](O)[C@@H](CO)O[C@@H](O[C@H]3[C@H](O)[C@@H](NC(C)=O)C(O)O[C@@H]3CO)[C@@H]2O[C@@H]2O[C@@H](C)[C@@H](O)[C@@H](O)[C@@H]2O)O[C@H](CO)[C@H](O)[C@@H]1O (stereo partly drawn) [compound 6, A type II]
Kd ([3]; read-out: A type II (6)): 13.45 ± 0.05 µM | Kd ([1]; read-out: A type II (6), site: C-terminal CRD, not pre-loaded): 12 ± 1 µM

CC(=O)N[C@H]1C(O)O[C@H](CO)[C@@H](O[C@@H]2O[C@H](CO)[C@H](O)[C@H](O[C@H]3O[C@H](CO)[C@H](O)[C@H](O)[C@H]3O)[C@H]2O[C@@H]2O[C@@H](C)[C@@H](O)[C@@H](O)[C@@H]2O)[C@@H]1O (stereo partly drawn) [compound 5, B type II]
Kd ([3]; read-out: B type II (5)): 18.4 ± 0.1 µM | Kd ([1]; read-out: B type II (5), site: C-terminal CRD): 36.7 ± 0.6 µM
